Measured values published in patent publication US9878070B2, “Malleable implants including an oxysterol and methods of use” (Warsaw Orthopedic, Inc., priority 2015, dated 2018).
“Also recorded” adds a separate entry of the source.

What was measured:
[1] = system: multipotent mesenchymal cells such as M2-10B4 (M2) marrow stromal cells and C3H10T1/2 embryonic fibroblasts; conditions: cited from earlier work
[2] = system: rat two-level spine model; test: Posterolateral spinal fusion in a rat two-level spine model (radiographs, manual palpation); assay type: in vivo; conditions: collagen/ceramic matrix wetted with sterile water, bilateral in posterolateral space, 4-week and 8-week timepoints
Description: FIG. 6 illustrates uses of a formulation of malleable implants having 20 mg of Oxy133 on each side of the implant, in accordance with the malleable implants described herein. […] A dry composition of a matrix containing Oxy133, collagen and ceramic as described herein was prepared and wetted with sterile water to be implanted in rat spines as shown in FIG. 6. The wetted matrix was cut in half with a razor blade to yield two halves. The two implants were molded into cylindrical shapes prior to insertion and were positioned bilaterally in the posterolateral space of each test subject. Each implant contained 20 mg Oxy133. Radiographs were taken roughly 10 minutes after the procedure, 4 weeks after the procedure, and 8 weeks after the procedure. […] Fusion was tested at 8-week sacrifice by manual palpation. […] A dry composition of a matrix containing Oxy133, collagen and ceramic as described herein was prepared and wetted with sterile water to be implanted in rat spines as shown in FIG. 6. The wetted matrix was cut in half with a razor blade to yield two halves. The two implants were molded into cylindrical shapes prior to insertion and were positioned bilaterally in the posterolateral space of each test subject. Each implant contained 125 mg Oxy133. Radiographs were taken roughly 10 minutes after the procedure, 4 weeks after the procedure, and 8 weeks after the procedure. […]

Row | SMILES | osteogenic differentiation [1] | bridging bone across the transverse processes of L3-L5 / bone growth (radiographs) ([2]; 20 mg Oxy133 per implant) | bridging bone across the transverse processes of L3-L5 / bone growth (radiographs) ([2]; 125 mg Oxy133 per implant)
1 | CC(C)CC[C@@H](O)[C@@H](C)[C@H]1CC[C@H]2[C@@H]3CC=C4C[C@@H](O)CC[C@]4(C)[C@H]3CC[C@]12C [22(R)-hydroxycholesterol] | induce osteogenic differentiation | – | –
2 | CCCCCC[C@](C)(O)[C@H]1CC[C@H]2[C@@H]3C[C@H](O)[C@H]4C[C@@H](O)CC[C@]4(C)[C@H]3CC[C@@]21C [Oxy133, (3S,5S,6S,8R,9S,10R,13S,14S,17S) 17-((S)-2-hydroxyoctan-2-yl)-10,13-dimethylhexadecahydro-1H-cyclopenta[a]phenanthrene-3,6-diol] | – | promoted bridging bone; also recorded: Bone growth in rat test subjects can be seen | promoted bridging bone; also recorded: Bone growth in rat test subjects can be seen
3 | CC(C)CC[C@H](O)[C@@H](C)[C@H]1CC[C@H]2[C@@H]3CC=C4C[C@@H](O)CC[C@]4(C)[C@H]3CC[C@]12C [22(S)-hydroxycholesterol] | induce osteogenic differentiation | – | –
4 | CC(C)CCC[C@](C)(O)[C@H]1CC[C@H]2[C@@H]3CC=C4C[C@@H](O)CC[C@]4(C)[C@H]3CC[C@@]21C [20(S)-hydroxycholesterol] | induce osteogenic differentiation | – | –
